Reference: patent US11179395B2, “Treating melanoma with mebendazole and a mitogen-activated kinase inhibitor” (GEORGETOWN UNIVERSITY, priority 2017, dated 2021)
Like-named read-outs stand apart in the source and are kept apart here.

What was measured:
[1] = Pharmacokinetic studies of MBZ formulations; type: in vivo, athymic mice; settings: MBZ 40 mg/kg oral gavage; for lower exposure with trametinib co-administration vs. methylcellulose: 8 hours
[2] = Pharmacokinetic studies of MBZ formulations; type: in vivo, athymic mice; settings: for mean plasma exposure at 8 hours / concentration at 8 h: MBZ 40 mg/kg oral gavage; for concentration at 8 h: athymic, mouse, plasma, oral, 40 mg/kg, read-out: mean plasma exposure at 8 hours
Description: In pharmacokinetic (PK) studies, MBZ was administered to athymic mice (described below) by oral gavage at a dose of 40 mg/kg in three different formulations (methylcellulose, oleic acid, or sesame oil/PBS) or methylcellulose in combination with cimetidine. MBZ and two metabolites, 2-Amino-5-benzoyl-1H bezimidizole (2ABB), and rac Dihydro MBZ (RDM), were quantified in mouse plasma as described in Bai et al., “Brain Penetration and Efficacy of Different Mebendazole Polymorphs in a Mouse Brain Tumor Model,” Clin. Cancer Res. 21:3462-3470 (2015)).

[3] = 10 mg/kg/day, chronic MBZ; cited from earlier work
[4] = molecular target: VEGFR2 (Homo sapiens, UniProt P35968); assay: MBZ potency towards VEGFR2 compared with BRAF (FIG. 1C); type: biochemical
VEGFR2, sequence (P35968 20-1356): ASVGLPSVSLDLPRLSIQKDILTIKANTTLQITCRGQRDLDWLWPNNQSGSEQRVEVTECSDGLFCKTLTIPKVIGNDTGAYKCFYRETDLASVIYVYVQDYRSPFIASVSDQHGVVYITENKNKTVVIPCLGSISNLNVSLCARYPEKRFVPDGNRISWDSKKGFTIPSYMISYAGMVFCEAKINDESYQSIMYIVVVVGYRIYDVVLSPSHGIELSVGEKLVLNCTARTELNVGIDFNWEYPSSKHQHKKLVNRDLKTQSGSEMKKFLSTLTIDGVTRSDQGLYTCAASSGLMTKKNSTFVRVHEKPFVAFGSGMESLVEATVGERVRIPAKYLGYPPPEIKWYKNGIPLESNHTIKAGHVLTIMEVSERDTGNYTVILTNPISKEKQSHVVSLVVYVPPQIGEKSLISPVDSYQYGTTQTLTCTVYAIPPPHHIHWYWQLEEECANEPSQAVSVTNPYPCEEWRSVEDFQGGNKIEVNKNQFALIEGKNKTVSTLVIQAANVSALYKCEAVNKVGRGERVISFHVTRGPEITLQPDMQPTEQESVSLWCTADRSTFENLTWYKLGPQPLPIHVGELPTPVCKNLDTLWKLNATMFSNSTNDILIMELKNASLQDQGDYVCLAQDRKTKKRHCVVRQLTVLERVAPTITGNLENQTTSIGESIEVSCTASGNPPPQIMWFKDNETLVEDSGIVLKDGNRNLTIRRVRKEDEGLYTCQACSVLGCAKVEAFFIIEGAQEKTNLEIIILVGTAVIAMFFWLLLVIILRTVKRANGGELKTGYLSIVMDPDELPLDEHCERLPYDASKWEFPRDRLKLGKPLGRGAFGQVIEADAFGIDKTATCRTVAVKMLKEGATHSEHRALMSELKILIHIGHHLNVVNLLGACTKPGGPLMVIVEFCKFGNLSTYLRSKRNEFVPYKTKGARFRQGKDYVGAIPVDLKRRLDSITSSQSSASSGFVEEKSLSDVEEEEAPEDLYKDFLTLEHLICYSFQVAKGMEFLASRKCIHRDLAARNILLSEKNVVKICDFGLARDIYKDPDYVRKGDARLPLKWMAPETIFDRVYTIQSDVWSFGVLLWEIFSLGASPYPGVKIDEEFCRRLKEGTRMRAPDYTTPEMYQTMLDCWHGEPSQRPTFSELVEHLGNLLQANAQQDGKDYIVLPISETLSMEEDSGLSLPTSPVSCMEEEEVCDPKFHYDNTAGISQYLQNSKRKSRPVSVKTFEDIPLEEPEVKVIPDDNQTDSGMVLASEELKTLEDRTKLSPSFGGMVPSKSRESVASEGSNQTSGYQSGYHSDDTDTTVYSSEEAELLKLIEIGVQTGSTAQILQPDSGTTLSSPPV

[5] = molecular target: CRAF (Homo sapiens, UniProt P04049); assay: Affinity of MBZ for CRAF; type: binding
CRAF, sequence (P04049 whole entry, canonical isoform): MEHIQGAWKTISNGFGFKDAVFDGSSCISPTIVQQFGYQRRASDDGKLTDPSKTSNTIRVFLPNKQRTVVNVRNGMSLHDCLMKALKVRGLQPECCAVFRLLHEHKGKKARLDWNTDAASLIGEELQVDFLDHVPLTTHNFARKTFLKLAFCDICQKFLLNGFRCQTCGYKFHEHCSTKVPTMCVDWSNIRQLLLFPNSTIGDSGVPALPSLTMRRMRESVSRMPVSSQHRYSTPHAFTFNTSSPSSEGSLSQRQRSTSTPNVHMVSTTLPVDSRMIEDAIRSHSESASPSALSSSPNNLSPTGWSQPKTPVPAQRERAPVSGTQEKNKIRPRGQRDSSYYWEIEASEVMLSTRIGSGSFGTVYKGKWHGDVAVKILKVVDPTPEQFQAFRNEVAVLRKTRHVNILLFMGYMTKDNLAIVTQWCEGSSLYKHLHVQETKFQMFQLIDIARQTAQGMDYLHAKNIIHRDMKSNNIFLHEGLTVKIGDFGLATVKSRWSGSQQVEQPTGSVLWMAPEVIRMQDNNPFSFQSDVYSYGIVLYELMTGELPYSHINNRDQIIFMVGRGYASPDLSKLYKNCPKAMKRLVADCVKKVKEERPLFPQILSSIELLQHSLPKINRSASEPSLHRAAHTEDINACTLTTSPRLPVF
From the text: MBZ interacts with VEGFR in silico and MBZ interacts with additional kinases in vitro, including BCR-ABL and BRAF. TMFS was used to show the nature of the interactions between MBZ, and VEGFR, and with BRAFWT or BRAFV600E. […] In fact these inhibitors actually enhance growth of NRASmut/BRAFWT tumors by paradoxically further activating the MAPK pathway through induced conformational changes in wild type RAF isoforms, inducing dimerization, membrane localization, and activation by RAS.

[6] = tested on: BAK, BUL and STU melanoma cells; assay: XTT cell viability assay, all three melanoma cell lines; type: cell-based, Human; settings: 72 h
Description: FIGS. 2A-2C show decreased viability of melanoma cells exposed to MBZ, dabrafenib (D), trametinib (T), or combinations of T+D or MBZ+trametinib. A) BAK (BRAFWT/NRASQ61K); B) BUL (BRAFWT/NRASQ61K); and C.) STU (BRAFV600K/NRASWT) melanoma cells were exposed to the indicated concentrations of MBZ, D, T, T+D or MBZ+trametinib (T+MBZ) for 72 h, and subjected to XTT cell viability assays, as described in the Examples. Error bars represent mean±SD for triplicates. […] The results shown are based on a single experiment in triplicate; and repeated in three independent experiments with essentially the same results.
MBZ, dabrafenib, and trametinib were purchased from Sigma-Aldrich (St. Louis, Mo.) and ActiveBiochem (Maplewood, N.J.), respectively. 5×10^3 viable cells per well were plated in 96-well dishes and allowed to recover for 12 h prior to drug treatment. Cells in triplicate wells were treated for up to 72 h (based on initial time course experiments showing maximal effects at that time point) with different concentrations of trametinib, dabrafenib, or MBZ alone, or a combination of MBZ and trametinib. Negative controls were exposed to vehicle DMSO in the same volumes. Cell viability was assessed by an XTT assay, according to a manufacturer's specifications (Biotium Inc (Fremont, Calif.)). Reduced XTT was measured by absorbance at 490 nm on a PerkinElmer Victor 3 (Duluth, Ga.) plate reader. Cells exposed to detergent served as a positive control.

[7] = molecular target: BRAFV600E (Homo sapiens, UniProt P15056, V600E); assay: In-vitro binding affinity of MBZ (FIG. 1C)
BRAFV600E, sequence (P15056 whole entry V600E): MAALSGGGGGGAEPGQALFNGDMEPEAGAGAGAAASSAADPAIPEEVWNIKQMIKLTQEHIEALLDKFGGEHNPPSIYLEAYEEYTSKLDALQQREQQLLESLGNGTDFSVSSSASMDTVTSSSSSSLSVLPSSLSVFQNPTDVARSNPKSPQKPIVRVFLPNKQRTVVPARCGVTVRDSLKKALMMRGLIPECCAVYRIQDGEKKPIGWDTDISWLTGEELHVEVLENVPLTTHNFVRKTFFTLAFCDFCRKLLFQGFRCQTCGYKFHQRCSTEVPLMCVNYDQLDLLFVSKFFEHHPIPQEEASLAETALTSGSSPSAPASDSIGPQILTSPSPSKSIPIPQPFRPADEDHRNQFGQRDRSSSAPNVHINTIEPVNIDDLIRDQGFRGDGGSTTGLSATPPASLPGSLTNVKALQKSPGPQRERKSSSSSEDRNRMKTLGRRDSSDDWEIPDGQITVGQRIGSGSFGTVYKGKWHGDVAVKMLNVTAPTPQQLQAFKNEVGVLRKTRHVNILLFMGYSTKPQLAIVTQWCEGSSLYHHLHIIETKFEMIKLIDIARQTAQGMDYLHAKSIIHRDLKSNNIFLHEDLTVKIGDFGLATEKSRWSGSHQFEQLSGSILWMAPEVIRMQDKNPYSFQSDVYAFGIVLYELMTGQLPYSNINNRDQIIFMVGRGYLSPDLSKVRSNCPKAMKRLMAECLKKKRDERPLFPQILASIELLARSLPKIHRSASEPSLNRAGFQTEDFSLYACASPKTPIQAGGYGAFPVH
From the text: (§1) Efforts to develop drugs targeting mutant BRAF led to FDA approval of vemurafenib in 2011 and dabrafenib in 2013. […] In addition, other MAPK pathway proteins including CRAF and MEK were identified.

[8] = molecular target: BRAFWT (Homo sapiens, UniProt P15056); assay: In-vitro binding affinity of MBZ (FIG. 1C)
BRAFWT, sequence (P15056 whole entry): as the sequence (P15056 whole entry V600E) above, with E600V counted along it
From the text: as §1

[9] = tested on: MEK1/2 and ERK1/2 phosphorylation; assay: Immunoblot analysis of xenograft tumor extracts; type: in vivo, athymic mice; settings: tumors collected at termination of experiment; combination is HDT+MBZ
Description: Athymic mice were injected with 3×10^6 BAK melanoma cells, and tumors were allowed to grow to a volume of 100 mm^3. […] Time 0 is the tumor volume on the first day of treatment; tumor sizes were normalized to their size at time 0 of drug treatment. B) Mice were weighed every other day and body weights (g) plotted over time. Data from four experiments were combined for statistical analysis, to compare every mouse from each treatment group. The total mice for all experiments included vehicle control (n=13), LDT (n=12), MBZ (n=12), HDT (n=12), LDT+MBZ (n=12), and HDT+MBZ (n=15). The results are shown as the mean (+SD) of tumor volume in each group. C) and D) ERK and MEK phosphorylation was suppressed in large (C) or small (D) tumor xenografts from mice treated with T+MBZ. Tumor extracts were derived from xenografts, then subjected to immunoblot analysis using antibodies specific for total BRAT, phospho-BRAF, ERK1/2, phospho-ERK1/2, total MEK1/2, phospho-MEK1/2, or GAPDH as a loading control. SDS-PAGE and transfer of separated proteins to nitrocellulose membranes were performed according to standard procedures. […] Immune complexes were detected by incubation with appropriate horseradish peroxidase-conjugated antibodies to mouse or rabbit IgG (1:3000) and enhanced chemiluminescence (Pierce, Rockford, Ill.).

[10] = tested on: MEK/ERK pathway in BAK cells; assay: Immunoblot analysis of cultured cells; type: cell-based, Human; settings: 100 nM; for pMEK1/2 S217/221 phosphorylation: combination within 30 min
From the text: FIGS. 5A-H are RPPA (A) and immunoblot (B-E) analyses that reveal suppression of the MAPK pathway, including ERK and its downstream substrates in melanoma cells exposed to MBZ+trametinib. A. […] Cell extracts derived at indicated times were subjected to RPPA analysis, and unsupervised hierarchal clustering was used to generate a heat map as described in Materials and Methods. […] F)-H) Immunoblot experiments were repeated with an additional melanoma cell line BUL, which harbors the same NRASQ61K mutation. […] All immunoblots were then reprobed with GAPDH as loading control. SDS-PAGE and transfer of separated proteins to nitrocellulose membranes were performed according to standard procedures. Membranes were stained with Ponceau S (0.1%) to verify equal loading and transfer of proteins, and then incubated with antibodies specific for pERK1/2 T202/Y204, pMEK1/2 S217/221, pBAD S-112, total BAD, total ERK1/2, total MEK1/2, BCL2 (Santa Cruz Biotech), BCLXL (Santa Cruz Biotech (Santa Cruz, Calif.)), cleaved PARP (Cell Signaling (Danvers, Mass.)), or GAPDH (Abeam (Cambridge, UK); loading control). Immune complexes were detected by incubation with appropriate horseradish peroxidase-conjugated antibodies to mouse or rabbit IgG (1:3000) and enhanced chemiluminescence (Pierce, Rockford, Ill.).

[11] = tested on: BRAF; assay: In-vitro kinase assay; type: biochemical
From the text: as §1

[12] = tested on: MEK; assay: In-vitro kinase assay; type: biochemical
From the text: as §1

[13] = tested on: BAK (BRAFWT/NRASQ61K) melanoma cells; assay: XTT cell viability assay; type: cell-based; settings: Homo sapiens; cultured NRAS cells, FIG. 2A; read-out: IC80 (equivalent to patient mean peak plasma concentration)
Description: MBZ, dabrafenib, and trametinib were purchased from Sigma-Aldrich (St. Louis, Mo.) and ActiveBiochem (Maplewood, N.J.), respectively. […] Cell viability was assessed by an XTT assay, according to a manufacturer's specifications (Biotium Inc (Fremont, Calif.)). Reduced XTT was measured by absorbance at 490 nm on a PerkinElmer Victor 3 (Duluth, Ga.) plate reader. […]
The results shown are based on a single experiment in triplicate, and repeated in three independent experiments with essentially the same results. […] For determining synergism, the combination index (τ) was calculated from single dose-response curves and combination experiments as τ=xA/XA+xB/XB, in which, for a given cytotoxic effect, xA and xB are the concentrations of drugs A and B in the combination, and XA and XB are the concentrations of drugs A and B that achieve the same cytotoxic effect when given alone. […]

[14] = tested on: MEK/ERK pathway in BAK NRASQ61K melanoma cells; assay: Reverse-phase protein array (RPPA); type: cell-based, Human; settings: 10 nM or 100 nM; 1, 8 or 24 h
Description: Cell lysates were analyzed by reverse-phase protein array (RPPA). Samples were diluted to 0.5 mg/mL and dilutions printed on slides in triplicate. Slides were immunostained with 137 different antibodies specific for total proteins, or phosphorylated or cleaved products. […] Intensity values were normalized to that of total protein for each sample stained with Sypro Ruby (Invitrogen Carlsbad, Calif.)). Unsupervised cluster analysis http://www.hiv.1an1.ov/content/sequence/HEATMAP/heatmap.html was performed for all proteins in the RPPA using the standard bootstrap method.
Given the potential changes in tumor cell signaling and survival over the long time course of the xenografts, potential mechanisms by which MBZ+trametinib exerts its cytotoxic effects were examined using cultured BAK NRASQ61K melanoma cells. Cells were exposed to MBZ (10 nM or 100 nM), trametinib (10 nM or 100 nM), or a combination of the two for 1, 8, or 24 h, after which cell extracts were subjected to reverse-phase protein array (RPPA) analysis.

[15] = tested on: patient-derived metastatic melanoma cells harboring a BRAFWT/NRASQ61K mutation profile; assay: Treatment of patient-derived metastatic melanoma cells (FIG. 7); type: cell-based, Human
From the text: In additional studies, patient-derived cells harboring a BRAFWT/NRASQ61K mutation profile were separated into CD133+ populations and CD133− populations.

[16] = tested on: BAK (BRAFWT/NRASQ61K) melanoma xenografts; assay: Mouse xenografting, tumor growth; type: in vivo, athymic mice; settings: oral gavage; MBZ 40 mg/kg/qad, trametinib 0.1 or 3 mg/kg/qd
Description: Athymic mice were injected with 3×10^6 BAK melanoma cells, and tumors were allowed to grow to a volume of 100 mm^3. Animals were then gavaged with vehicle emulsion control, 40 mg/kg/qad (every other day) MBZ, low dose trametinib (LDT; 0.1 mg/kg/qd (once a day)), high dose trametinib (HDT; 3 mg/kg/qd) or a combination of MBZ and LDT or HDT, A) Tumor widths and lengths were measured and volumes calculated as w2×l/2, where width is defined as the smaller of the tumor dimensions. Time 0 is the tumor volume on the first day of treatment; tumor sizes were normalized to their size at time 0 of drug treatment. B) Mice were weighed every other day and body weights (g) plotted over time. […]
Athymic 6-week old male mice (Taconic (Hudson, N.Y.)) were acclimated to the Division of Comparative Medicine at Georgetown University a week prior to xenografting. […] Tumor growth was measured with calipers, and drug treatment started when tumor volumes reached 100 mm^3, after which mice were monitored daily for drug efficacy, as well for adverse effects, including weight and behavior. […] Each tumor from each treatment group was measured on indicated days, and all tumor sizes were then normalized to their size at day 0 of drug treatment. […] The results were expressed as the mean (±SD) of tumor volume in each group.

COC(=O)Nc1nc2ccc(C(O)c3ccccc3)cc2[nH]1 (racemic) [RDM, rac Dihydro MBZ]
lower exposure with trametinib co-administration vs. methylcellulose [1]: did not alter | mean plasma exposure at 8 hours ([2]; methylcellulose formulation): 57 ng/mL | mean plasma exposure at 8 hours ([2]; oleic acid formulation): 543 ng/mL

COC(=O)Nc1nc2ccc(C(=O)c3ccccc3)cc2[nH]1 [MBZ, methyl N-[6-(benzoyl)-1H-benzimidazol-2-yl] carbamate]
lower exposure with trametinib co-administration vs. methylcellulose [1]: did not alter | mean peak plasma level [3]: 470 nM | peak plasma level, variability between patients [3]: 0.34 to 1.69 µM | concentration at 8 h ([2]; methylcellulose formulation): 473 ng/mL | concentration at 8 h ([2]; oleic acid formulation): 1390 ng/mL | difference in exposure between formulations or combinations ([2]; one hour, P>0.05 Kruskal-Wallis): no difference | potency towards BRAF versus VEGFR2 [4]: more potency towards BRAF | affinity for CRAF [5]: very low affinity | cytotoxicity as single agent [6]: weak cytotoxic activity | concentration at which significant growth inhibition was observed ([6]; 2-way ANOVA): ≥ 10 nM | Kd [7]: 210 nM | Kd [8]: 230 nM | MEK1/2 and ERK1/2 phosphorylation in tumors [9]: suppress MEK and ERK phosphorylation | ERK1/2 (T202/Y204) phosphorylation ([10]; combination undetectable by 30 min): diminished | pMEK1/2 S217/221 phosphorylation [10]: not inhibited | inhibition of kinase activity by MBZ [11]: nM range | inhibition of kinase activity by MBZ [12]: nM range | IC80 [13]: ~470 nM | phosphorylation of proteins associated with the MEK/ERK pathway [14]: down-regulated | sensitivity to treatment [15]: sensitivity | tumor growth [16]: did not work as a monotherapy

CC(C)(C)c1nc(-c2cccc(NS(=O)(=O)c3c(F)cccc3F)c2F)c(-c2ccnc(N)n2)s1 [dabrafenib]
cytotoxicity as single agent [6]: resistance

Nc1nc2cc(C(=O)c3ccccc3)ccc2[nH]1 [2ABB, 2-Amino-5-benzoyl-1H bezimidizole]
lower exposure with trametinib co-administration vs. methylcellulose [1]: ~45% | mean plasma exposure at 8 hours ([1]; trametinib co-administration): 242 ng/mL | mean plasma exposure at 8 hours ([2]; methylcellulose formulation): 425 ng/mL | mean plasma exposure at 8 hours ([2]; oleic acid formulation): 427 ng/mL

CC(=O)Nc1cccc(-n2c(=O)n(C3CC3)c(=O)c3c(Nc4ccc(I)cc4F)n(C)c(=O)c(C)c32)c1 [trametinib]
pMEK1/2 S217/221 phosphorylation [10]: not inhibited
